Measured values published in ChEMBL document CHEMBL4823289, “Conformational-Analysis-Guided Discovery of 2,3-Disubstituted Pyridine IDO1 Inhibitors” (ACS Med Chem Lett, 2021).

What was measured:
[1] = target: Indoleamine 2,3-dioxygenase 1 (Mus musculus, UniProt P28776); assay: Inhibition of IDO1 in IFNgamma-stimulated mouse M109 cells preincubated for 2 hrs followed by recombinant murine IFNgamma stimulation and measured after 18 hrs by fluorescence based microplate reader assay; format: cell-based
Chain of Indoleamine 2,3-dioxygenase 1 (Mus musculus, UniProt P28776) (P28776 whole entry): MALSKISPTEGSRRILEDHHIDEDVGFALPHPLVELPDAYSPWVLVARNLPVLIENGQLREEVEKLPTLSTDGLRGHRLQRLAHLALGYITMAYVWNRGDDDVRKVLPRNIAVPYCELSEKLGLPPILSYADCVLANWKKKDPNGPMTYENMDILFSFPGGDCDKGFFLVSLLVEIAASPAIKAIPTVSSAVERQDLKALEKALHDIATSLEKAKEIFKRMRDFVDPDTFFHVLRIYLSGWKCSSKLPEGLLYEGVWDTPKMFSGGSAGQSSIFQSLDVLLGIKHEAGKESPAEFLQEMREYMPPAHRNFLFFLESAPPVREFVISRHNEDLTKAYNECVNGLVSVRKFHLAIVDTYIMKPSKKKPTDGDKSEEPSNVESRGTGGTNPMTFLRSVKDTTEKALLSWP

[2] = Metabolic stability in mouse liver microsomes assessed as parent compound remaining at 0.5 uM after 10 mins incubation by LC-MS/MS analysis relative to control; format: ADME, Microsome; details: read-out: Activity
[3] = target: T1, Indoleamine 2,3-dioxygenase 1 (Homo sapiens, UniProt P14902); assay: Inhibition of IDO1 in IFNgamma-stimulated human HeLa cells preincubated for 2 hrs followed by recombinant human IFNgamma stimulation and measured after 18 hrs by fluorescence based microplate reader assay
T1 sequence (P14902 whole entry): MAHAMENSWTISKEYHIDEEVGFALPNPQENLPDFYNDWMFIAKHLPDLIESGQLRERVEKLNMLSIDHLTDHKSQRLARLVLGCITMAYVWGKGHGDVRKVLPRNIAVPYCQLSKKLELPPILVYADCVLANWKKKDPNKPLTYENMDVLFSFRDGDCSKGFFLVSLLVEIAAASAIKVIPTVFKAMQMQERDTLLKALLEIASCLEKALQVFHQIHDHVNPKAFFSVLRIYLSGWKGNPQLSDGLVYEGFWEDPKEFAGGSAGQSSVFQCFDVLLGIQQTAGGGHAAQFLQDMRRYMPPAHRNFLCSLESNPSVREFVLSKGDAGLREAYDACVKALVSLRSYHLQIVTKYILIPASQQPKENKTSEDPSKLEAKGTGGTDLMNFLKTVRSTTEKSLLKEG

[4] = Metabolic stability in human liver microsomes assessed as parent compound remaining at 0.5 uM after 10 mins incubation by LC-MS/MS analysis relative to control; format: ADME, Microsome; details: read-out: Activity
[5] = Protein binding in mouse assessed as free fraction relative to control; format: ADME
[6] = Protein binding in human assessed as free fraction relative to control; format: ADME
[7] = Metabolic stability in rat liver microsomes assessed as parent compound remaining at 0.5 uM after 10 mins incubation by LC-MS/MS analysis relative to control; format: ADME, Microsome; details: read-out: Activity
[8] = target: T1, Indoleamine 2,3-dioxygenase 1; assay: Inhibition of IDO1 in IFNgamma/LPS-stimulated human whole blood preincubated for 4 hrs followed by IFNgamma/LPS stimulation and incubated for 18 hrs by Rapid-fire mass spectrometry analysis; format: tissue-based
[9] = target: Indoleamine 2,3-dioxygenase 1 (Mus musculus) (UniProt P28776); assay: In vivo inhibition of IDO1 in mouse xenografted with human SK-OV-3 cells assessed as reduction in tumor kynurenine AUEC at 60 mg/kg, po QD for 5 days measured up to 24 hrs after dosing relative to control; format: functional, organism-based; design: scale not given: the % may be the effect or the level left; details: time 5.0 day
Chain of Indoleamine 2,3-dioxygenase 1 (Mus musculus) (P28776 whole entry, looked up): as the sequence (P28776 whole entry) above

[10] = AUC (0 to 24 hrs) in human SK-OV-3 cells xenografted in nu/nu mouse xenograft model measured in tumor at 60 mg/kg, po QD; format: ADME, organism-based; design: time < 24 hr, route oral, dose 60 mg/kg

Row | Structure (SMILES) | IC50 [1] | remaining at 10 min, 0.5 µM [2] | IC50 [3] | remaining at 10 min, 0.5 µM [4] | Activity [5] | Activity [6] | remaining at 10 min, 0.5 µM [7] | IC50 [8] | Activity [9] | AUC at 24 h [10]
1 | CC[C@@H](NC(=O)c1ccc(Cl)cc1)[C@H]1CC[C@@H](c2cccc3c2OC(F)(F)O3)CC1 | 196 nM | 0% | 43 nM | 0% | – | – | – | – | – | –
2 | CC[C@@H](NC(=O)c1ccc(Cl)cc1)[C@H]1CC[C@H](c2nccc(OC)n2)CC1 | 193 nM | 42% | 80 nM | 20% | – | – | – | – | – | –
3 | C[C@@H](NC(=O)c1ccc(Cl)cc1)[C@H]1CC[C@@H](c2ccnc3ccc(F)cc32)CC1 | – | – | – | – | < 0.2% | < 0.3% | – | – | – | –
4 | Cc1c(F)nccc1[C@H]1CC[C@@H]([C@@H](C)NC(=O)c2ccc(Cl)cc2)CC1 | 3 nM | 1% | 5 nM | 0% | – | – | 1% | 47 nM | – | –
5 | Cc1cnccc1[C@H]1CC[C@@H]([C@@H](C)NC(=O)c2ccc(Cl)cc2)CC1 | 3 nM | 15% | 7 nM | 16% | – | – | – | – | – | –
6 | Cc1cc([C@H]2CC[C@@H]([C@@H](C)NC(=O)c3ccc(Cl)cc3)CC2)ccn1 | 16 nM | 1% | 12 nM | 1% | – | – | – | – | – | –
7 | CC[C@@H](NC(=O)c1ccc(Cl)cc1)[C@H]1CC[C@H](c2cncc(OC)c2)CC1 | 31 nM | 28% | 19 nM | 80% | – | – | – | – | – | –
8 | CC[C@@H](NC(=O)c1ccc(Cl)cc1)[C@H]1CC[C@@H](c2ccnc(OC)c2C)CC1 | 7 nM | 15% | 2 nM | 71% | – | – | 34% | 2.8 nM | – | –
9 | CC[C@@H](NC(=O)c1ccc(Cl)cc1)[C@H]1CC[C@H](c2ccc(OC(F)F)cc2)CC1 | 75 nM | 90% | 14 nM | 94% | – | – | – | – | – | –
10 | CC[C@@H](NC(=O)c1ccc(Cl)cc1)[C@H]1CC[C@@H](c2ccnc(OC)c2F)CC1 | 22 nM | 15% | 3 nM | 68% | – | – | 21% | 11 nM | – | –
11 | COC[C@@H](NC(=O)c1ccc(Cl)cc1)[C@H]1CC[C@@H](c2ccnc(OC)c2C(F)F)CC1 | 11 nM | 15% | 2 nM | 68% | – | – | 35% | 4.1 nM | – | –
12 | CC[C@@H](NC(=O)c1ccc(Cl)cc1)[C@H]1CC[C@@H](c2ccnc(OC)c2C(F)F)CC1 | 6 nM | 30% | 2 nM | 85% | – | – | 57% | 4.4 nM | – | –
13 | CC[C@@H](NC(=O)c1ccc(Cl)cc1)[C@H]1CC[C@H](c2cccc(C)n2)CC1 | 121 nM | 8% | 48 nM | 56% | – | – | – | – | – | –
14 | Cc1nccc([C@H]2CC[C@@H]([C@@H](C)NC(=O)c3ccc(Cl)cc3)CC2)c1C | 6 nM | 3% | 4 nM | 30% | – | – | – | – | – | –
15 | CC[C@@H](NC(=O)c1ccc(Cl)cc1)[C@H]1CC[C@H](c2cccc(=O)n2C)CC1 | 97 nM | 65% | 26 nM | 88% | – | – | – | – | – | –
16 | CC[C@@H](NC(=O)c1ccc(Cl)cc1)[C@H]1CC[C@H](c2cccc(C(F)(F)F)n2)CC1 | 40 nM | 56% | 40 nM | 89% | – | – | – | – | – | –
17 | CC[C@@H](NC(=O)c1ccc(Cl)cc1)[C@H]1CC[C@@H](c2cccnc2OC)CC1 | > 1000 nM | 1% | 475 nM | 3% | – | – | – | – | – | –
18 | C[C@@H](C(=O)Nc1ccc(Cl)cc1)[C@H]1CC[C@@H](c2ccnc3ccc(F)cc32)CC1 | – | – | – | – | – | – | – | – | 65% | 18 µM·h
